Results reported in patent publication US8455475B2 (Gruenenthal GmbH, priority 2009, dated 2013).

Molecular target: T1, rat B1R (bradykinin receptor 1) (Rattus norvegicus, UniProt P97583)
T1 construct: expressed in transfected cells; host or cells: CHO K1 cells
T1 sequence (P97583 1-337): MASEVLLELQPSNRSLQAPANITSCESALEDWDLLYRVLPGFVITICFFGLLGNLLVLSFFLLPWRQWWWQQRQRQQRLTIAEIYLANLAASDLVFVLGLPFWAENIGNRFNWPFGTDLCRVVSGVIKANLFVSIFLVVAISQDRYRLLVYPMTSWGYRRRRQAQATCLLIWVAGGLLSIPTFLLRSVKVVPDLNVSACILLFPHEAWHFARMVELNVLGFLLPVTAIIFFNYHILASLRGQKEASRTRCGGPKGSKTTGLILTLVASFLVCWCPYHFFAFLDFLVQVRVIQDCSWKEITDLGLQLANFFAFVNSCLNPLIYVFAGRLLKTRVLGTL
Assay: FLIPR Ca2+ assay (Fluo-4) on CHO K1 cells stably transfected with the B1R gene of the rat (rB1R cells): % inhibition at 10 μM / IC50, agonist Des-Arg9-bradykinin
Assay type: cell-based
Conditions: CHO-K1, rat B1R
Procedure, shortened: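 Using a two-addition FLIPR protocol, compound (10 μM for % values; concentration series for IC50) was preincubated 10–20 min with Fluo-4-loaded B1R-expressing CHO K1 cells before EC80 agonist challenge. Suppression of Ca2+ inflow, read as peak fluorescence, is expressed relative to maximum achievable inhibition; duplicate/triplicate, ≥2 independent experiments.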

inhibition at 10 µM [%]	SMILES
54	CC(C)CN1CCC2(CC1)CCN(C(=O)c1ccc3c(c1)C(NC(=O)c1cc(Cl)ccc1F)CC3)CC2 (centres unmarked) [IND_CC-680, 5-Chloro-2-fluoro-N-[6-[9-(2-methyl-propyl)-3,9-diazaspiro[5.5]undecane-3-carbonyl]-2,3-dihydro-1H-inden-1-yl]-benzamide]
53	O=C(NC1CCc2ccc(C(=O)N3CCC4(CCN(CCc5ccccc5)CC4)CC3)cc21)c1cc(Cl)ccc1F (centres unmarked) [IND_CC-681, 5-Chloro-2-fluoro-N-[6-(9-phenethyl-3,9-diazaspiro[5.5]undecane-3-carbonyl)-2,3-dihydro-1H-inden-1-yl]-benzamide]
51	Cc1nn(C)c(C)c1CN1CCC2(CC1)CCN(C(=O)c1ccc3c(c1)C(NC(=O)c1cc(C(F)(F)F)ccc1Cl)CC3)C2 (centres unmarked) [IND_CC-682, 2-Chloro-5-(trifluoromethyl)-N-[6-[8-[(1,3,5-trimethyl-1H-pyrazol-4-yl)-methyl]-2,8-diazaspiro[4.5]decane-2-carbonyl]-2,3-dihydro-1H-inden-1-yl]-benzamide]
62	CN(C)c1ncc(CN2CCC3(CC2)CCN(C(=O)c2ccc4c(c2)C(NC(=O)c2cc(C(F)(F)F)ccc2Cl)CC4)C3)cn1 (centres unmarked) [IND_CC-683, 2-Chloro-N-[6-[8-[(2-dimethylamino-pyrimidin-5-yl)-methyl]-2,8-diazaspiro[4.5]-decane-2-carbonyl]-2,3-dihydro-1H-inden-1-yl]-5-(trifluoromethyl)-benzamide]
67	O=C(NC1CCc2ccc(C(=O)N3CCC4(CCN(Cc5ccc6ncccc6c5)CC4)C3)cc21)c1cc(C(F)(F)F)ccc1Cl (centres unmarked) [IND_CC-684, 2-Chloro-N-[6-[8-(quinolin-6-yl-methyl)-2,8-diazaspiro[4.5]decane-2-carbonyl]-2,3-dihydro-1H-inden-1-yl]-5-(trifluoromethyl)-benzamide]
68	O=C(NC1CCc2ccc(C(=O)N3CCC4(CCN(Cc5ccc6nccnc6c5)CC4)C3)cc21)c1cc(C(F)(F)F)ccc1Cl (centres unmarked) [IND_CC-685, 2-Chloro-N-[6-[8-(quinoxalin-6-yl-methyl)-2,8-diazaspiro[4.5]decane-2-carbonyl]-2,3-dihydro-1H-inden-1-yl]-5-(trifluoromethyl)-benzamide]
69	Cn1nnc2cc(CN3CCC4(CC3)CCN(C(=O)c3ccc5c(c3)C(NC(=O)c3cc(C(F)(F)F)ccc3Cl)CC5)C4)ccc21 (centres unmarked) [IND_CC-686, 2-Chloro-N-[6-[8-[(1-methyl-1H-benzotriazol-5-yl)-methyl]-2,8-diazaspiro[4.5]-decane-2-carbonyl]-2,3-dihydro-1H-inden-1-yl]-5-(trifluoromethyl)-benzamide]
76	CC(C)CN1CCC2(CC1)CCN(C(=O)c1ccc3c(c1)C(NC(=O)c1cc(C(F)(F)F)ccc1Cl)CC3)C2 (centres unmarked) [IND_CC-687, 2-Chloro-N-[6-[8-(2-methyl-propyl)-2,8-diazaspiro[4.5]decane-2-carbonyl]-2,3-dihydro-1H-inden-1-yl]-5-(trifluoromethyl)-benzamide]
88	CCC(CC)CN1CCC2(CC1)CCN(C(=O)c1ccc3c(c1)C(NC(=O)c1cc(C(F)(F)F)ccc1Cl)CC3)C2 (centres unmarked) [IND_CC-688, 2-Chloro-N-[6-[8-(2-ethyl-butyl)-2,8-diazaspiro[4.5]decane-2-carbonyl]-2,3-dihydro-1H-inden-1-yl]-5-(trifluoromethyl)-benzamide]
55	O=C(NC1CCc2ccc(C(=O)N3CCC4(CCN(CC5CCCCC5)CC4)C3)cc21)c1cc(C(F)(F)F)ccc1Cl (centres unmarked) [IND_CC-689, 2-Chloro-N-[6-[8-(cyclohexyl-methyl)-2,8-diazaspiro[4.5]decane-2-carbonyl]-2,3-dihydro-1H-inden-1-yl]-5-(trifluoromethyl)-benzamide]
85	O=C(NC1CCc2ccc(C(=O)N3CCC4(CCN(CCc5ccccc5)CC4)C3)cc21)c1cc(C(F)(F)F)ccc1Cl (centres unmarked) [IND_CC-690, 2-Chloro-N-[6-(8-phenethyl-2,8-diazaspiro[4.5]decane-2-carbonyl)-2,3-dihydro-1H-inden-1-yl]-5-(trifluoromethyl)-benzamide]
